Results: US20120309811A1, “P-GLYCOPROTEIN-SPECIFIC NON-COMPETITIVE PEPTIDE AND PEPTIDOMIMETIC MODULATORS” (UNIVERSITE CLAUDE BERNARD - LYON 1, priority 2009, published 2012)
Square brackets hold non-standard residues; d marks the D form. Peptide text beside a SMILES is read from it. * marks the point of attachment. Hyp = O=C(O)[C@@H]1C[C@@H](O)CN1; Cbz = O=C(OCc1ccccc1)*; Boc = CC(C)(C)OC(=O)*; OBn = c1ccc(CO*)cc1; Bn = c1ccc(C*)cc1; OtBu = CC(C)(C)O*

Columns and labels:
P-gp = molecular target: T1, P-gp (Homo sapiens, UniProt P08183); experiment: Flow cytometry, inhibition of mitoxantrone efflux in NIH3T3 cells expressing P-gp; format: cell-based; settings: for inhibition at 1 h, 10 µM: human, probe mitoxantrone, read-out: % pump inhibition at 10 μM of compound, P-gp; for inhibition at 1 h, 10 µM / % pump inhibition at 10 μM of compound, P-gp: 10 μM compound; for inhibition at 1 h, 10 µM / IC50 / % pump inhibition at 10 μM of compound, P-gp: mitoxantrone efflux; for IC50: mathematical adjustment of experimental points
T1 construct: expressed in transfected cells; host or cells: NIH3T3 (ATCC CRL-1658), stably transfected with retroviral vector pHaMDR1/A
T1 sequence (P08183 whole entry): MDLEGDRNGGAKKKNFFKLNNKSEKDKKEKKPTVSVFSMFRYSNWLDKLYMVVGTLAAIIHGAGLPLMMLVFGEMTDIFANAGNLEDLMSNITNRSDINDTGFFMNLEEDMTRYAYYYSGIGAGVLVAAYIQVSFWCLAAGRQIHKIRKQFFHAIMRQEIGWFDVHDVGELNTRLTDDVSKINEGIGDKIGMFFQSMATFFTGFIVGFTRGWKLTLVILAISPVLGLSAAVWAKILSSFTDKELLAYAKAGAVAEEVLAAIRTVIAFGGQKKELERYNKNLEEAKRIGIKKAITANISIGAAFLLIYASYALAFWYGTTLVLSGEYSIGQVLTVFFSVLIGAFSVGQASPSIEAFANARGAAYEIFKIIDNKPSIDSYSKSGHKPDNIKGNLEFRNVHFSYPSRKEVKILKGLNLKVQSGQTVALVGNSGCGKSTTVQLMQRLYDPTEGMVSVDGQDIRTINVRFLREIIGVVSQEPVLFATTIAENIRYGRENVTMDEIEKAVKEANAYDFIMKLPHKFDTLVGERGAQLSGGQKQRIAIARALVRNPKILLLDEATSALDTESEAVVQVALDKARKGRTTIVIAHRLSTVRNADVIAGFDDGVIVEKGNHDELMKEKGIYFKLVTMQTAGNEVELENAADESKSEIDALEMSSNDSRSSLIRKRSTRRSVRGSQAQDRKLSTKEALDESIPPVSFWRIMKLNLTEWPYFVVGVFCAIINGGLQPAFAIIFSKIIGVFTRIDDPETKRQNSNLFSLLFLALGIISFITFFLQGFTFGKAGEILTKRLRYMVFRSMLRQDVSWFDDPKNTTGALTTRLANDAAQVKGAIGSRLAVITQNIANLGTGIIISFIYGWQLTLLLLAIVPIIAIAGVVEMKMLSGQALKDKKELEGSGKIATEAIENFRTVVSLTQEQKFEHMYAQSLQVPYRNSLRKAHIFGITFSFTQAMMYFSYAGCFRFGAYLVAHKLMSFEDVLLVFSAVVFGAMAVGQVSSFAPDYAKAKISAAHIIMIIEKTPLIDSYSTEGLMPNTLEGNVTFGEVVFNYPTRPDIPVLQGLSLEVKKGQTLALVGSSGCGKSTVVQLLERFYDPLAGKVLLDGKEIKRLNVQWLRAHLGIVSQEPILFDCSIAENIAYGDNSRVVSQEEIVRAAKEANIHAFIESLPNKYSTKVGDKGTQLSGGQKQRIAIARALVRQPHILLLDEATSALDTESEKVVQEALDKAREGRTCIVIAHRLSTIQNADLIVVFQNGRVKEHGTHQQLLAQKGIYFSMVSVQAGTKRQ
Source text: (§1) The HEK-293 human fibroblast line (ATCC cell collection CRL-1573) is transfected with either BCRP (Robey R. W. et al. 2003, Br. J. Cancer 89(10) 1971-1978, [32]) or ABCC1, cloned into the pcDNA3.1 expression vector (Invitrogen), or with the empty pcDNA3.1 vector. The NIH3T3 cell line (ATCC CRL-1658) was stably transfected with pHaMDR1/A (Cardarelli et al. 1995 Cancer Res 55 1086-1091, [33]), which is a retroviral vector that expresses the wild-type MDR1 protein. The BHK-21 cell line (ATCC CCL-10) was transfected with MRP1 cloned into the pcDNA3.1 expression vector, or the empty pcDNA3.1 vector. The cells are maintained in culture in DMEM glutamax II (Invitrogen) supplemented with 10% of fetal bovine serum and 1% of penicillin/streptomycin. The data are processed with Sigmaplot V11 (http://www.systat.com/), and the equation for mathematical adjustment of the experimental data for calculating the IC50 values: f=a×(1−exp(−b×x)) (a=slope, b=intercept on the y-axis).
(§2) The cells expressing P-gp, BCRP and MRP, and their corresponding controls, are placed in the presence of 10 and 2 μM of mitoxantrone for the first two transporters and of 1 μM of daunorubicin for the 3rd. Substrate accumulation is carried out for 30 minutes at 37° C. in the presence or absence of varied concentrations of the molecules tested, at a final DMSO (dimethyl sulfoxide) concentration of 0.5%. After washing with PBS (phosphate buffered saline), the cells are incubated in medium containing the same concentrations of molecules tested as previously, for 1 h at 37° C. The intracellular fluorescence of mitoxantrone and daunorubicin anticancer agent is measured with the FACscan flow cytometer (Becton Dickinson, Mountain, View, Calif.). The drugs are excited at 488 nm. The emission of mitoxantrone is measured at 650 nm, whereas the emission of daunorubicin is measured at 530 nm. The effectiveness of the molecules tested is expressed by equation 1: % effectiveness=100×(FA−FBG)/(FC−FBG), where FA corresponds to the intracellular level of substrate measured in the cells overexpressing ABCG2 (corresponding to the lowest level of fluorescence in the absence of inhibitor), FC corresponds to the fluorescence in the control cells transfected with the empty vector (and therefore to the maximum accumulation of substrate in the cells) and FBG corresponds to the fluorescence measured in the absence of substrate and in the presence of inhibitor.
(§3) The inhibitory effect of the compounds is quantified by measuring, by flow cytometry, the efflux of an anticancer drug transported by the pump under consideration, i.e. mitoxantrone for P-gp and BCRP and daunorubicin for MRP1. It is compared with that of the reference product, reversin 121. The products are tested at 10 μM, then at 2 μM for those which block at least 80% of the efflux of mitoxantrone, and for some, a more complete concentration range is tested so as to establish the concentration value producing 50% inhibition, IC50, as indicated in FIG. 3.

BCRP = molecular target: T2, BCRP (Homo sapiens, UniProt Q9UNQ0); experiment: Flow cytometry, inhibition of mitoxantrone efflux in HEK-293 cells transfected with BCRP; format: cell-based; settings: 10 μM compound
T2 construct: expressed in transfected cells; host or cells: HEK-293 (ATCC CRL-1573), pcDNA3.1 expression vector (Invitrogen)
T2 sequence (Q9UNQ0 1-655): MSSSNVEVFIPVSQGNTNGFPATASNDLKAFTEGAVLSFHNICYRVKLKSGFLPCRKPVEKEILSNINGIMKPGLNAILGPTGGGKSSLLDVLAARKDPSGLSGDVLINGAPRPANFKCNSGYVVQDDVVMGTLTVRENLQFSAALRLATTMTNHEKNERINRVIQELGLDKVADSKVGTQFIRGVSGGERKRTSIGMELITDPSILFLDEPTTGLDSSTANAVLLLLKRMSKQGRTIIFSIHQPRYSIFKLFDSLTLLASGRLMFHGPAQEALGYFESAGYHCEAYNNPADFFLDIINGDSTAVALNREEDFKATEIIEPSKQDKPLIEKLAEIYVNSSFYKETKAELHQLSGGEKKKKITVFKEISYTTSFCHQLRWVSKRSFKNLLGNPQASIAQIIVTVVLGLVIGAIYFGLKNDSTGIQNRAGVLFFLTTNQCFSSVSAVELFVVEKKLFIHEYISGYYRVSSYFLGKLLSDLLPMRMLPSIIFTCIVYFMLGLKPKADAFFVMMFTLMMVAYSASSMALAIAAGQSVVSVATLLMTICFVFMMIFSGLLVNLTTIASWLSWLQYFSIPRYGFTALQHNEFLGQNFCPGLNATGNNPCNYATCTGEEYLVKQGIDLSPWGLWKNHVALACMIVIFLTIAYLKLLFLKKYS
Source text: as §1, §2, §3

ABCB1 = ABCB1 (Homo sapiens, UniProt P08183); parameters: key: the inhibitor is active (+); it is inactive (−); the effect is unknown (?); settings: cited from earlier work
Chain of ABCB1 (P08183 whole entry): as the sequence (P08183 whole entry) above

ABCC1 = ABCC1 (Homo sapiens, UniProt P33527); settings: cited from earlier work
Chain of ABCC1 (P33527 whole entry): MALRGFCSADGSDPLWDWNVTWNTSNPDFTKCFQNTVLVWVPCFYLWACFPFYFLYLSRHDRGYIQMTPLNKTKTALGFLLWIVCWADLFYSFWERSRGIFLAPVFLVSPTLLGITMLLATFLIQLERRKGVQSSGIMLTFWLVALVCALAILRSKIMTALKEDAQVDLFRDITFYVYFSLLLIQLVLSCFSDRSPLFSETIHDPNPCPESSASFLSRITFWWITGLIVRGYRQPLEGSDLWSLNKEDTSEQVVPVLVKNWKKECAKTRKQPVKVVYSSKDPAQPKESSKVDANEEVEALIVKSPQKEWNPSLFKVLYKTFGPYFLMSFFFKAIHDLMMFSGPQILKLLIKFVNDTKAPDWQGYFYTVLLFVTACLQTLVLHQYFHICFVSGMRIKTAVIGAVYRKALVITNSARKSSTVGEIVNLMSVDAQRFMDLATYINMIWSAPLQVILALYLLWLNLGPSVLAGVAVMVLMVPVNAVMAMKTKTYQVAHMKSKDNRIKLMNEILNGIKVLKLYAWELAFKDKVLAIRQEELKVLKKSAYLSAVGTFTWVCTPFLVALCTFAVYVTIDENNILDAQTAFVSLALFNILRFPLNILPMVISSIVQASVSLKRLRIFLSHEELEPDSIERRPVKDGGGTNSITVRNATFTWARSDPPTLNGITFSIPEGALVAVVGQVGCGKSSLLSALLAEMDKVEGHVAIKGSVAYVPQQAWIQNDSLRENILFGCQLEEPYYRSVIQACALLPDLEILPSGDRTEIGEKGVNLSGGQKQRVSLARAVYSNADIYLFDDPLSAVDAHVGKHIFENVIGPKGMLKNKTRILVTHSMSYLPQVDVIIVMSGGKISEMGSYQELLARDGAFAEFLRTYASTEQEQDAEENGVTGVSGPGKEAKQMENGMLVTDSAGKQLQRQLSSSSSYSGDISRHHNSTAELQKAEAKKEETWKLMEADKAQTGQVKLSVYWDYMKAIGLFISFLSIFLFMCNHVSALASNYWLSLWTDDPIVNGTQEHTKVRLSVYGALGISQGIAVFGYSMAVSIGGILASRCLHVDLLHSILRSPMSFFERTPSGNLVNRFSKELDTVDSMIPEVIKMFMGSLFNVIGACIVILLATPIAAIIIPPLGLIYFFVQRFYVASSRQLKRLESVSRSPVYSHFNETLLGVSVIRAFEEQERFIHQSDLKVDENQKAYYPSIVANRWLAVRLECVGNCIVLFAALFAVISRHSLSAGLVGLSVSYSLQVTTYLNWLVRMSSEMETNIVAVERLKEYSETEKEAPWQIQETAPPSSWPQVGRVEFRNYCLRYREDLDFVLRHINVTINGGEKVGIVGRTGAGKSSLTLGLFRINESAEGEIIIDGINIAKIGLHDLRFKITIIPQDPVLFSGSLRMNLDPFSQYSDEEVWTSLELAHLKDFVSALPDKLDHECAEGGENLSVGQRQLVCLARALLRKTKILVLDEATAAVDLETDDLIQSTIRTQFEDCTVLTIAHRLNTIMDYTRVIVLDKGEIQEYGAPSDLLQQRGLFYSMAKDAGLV

ABCG2 = molecular target: T3, ABCG2 (Homo sapiens, UniProt Q9UNQ0); parameters: key: the inhibitor is active (+); it is inactive (−); the effect is unknown (?); settings: cited from earlier work
T3 sequence (Q9UNQ0 1-655): T2 sequence (Q9UNQ0 1-655)

MRP1 = molecular target: T4, MRP1 (Homo sapiens, UniProt P33527); experiment: Flow cytometry, inhibition of daunorubicin efflux in cells transfected with MRP1; format: cell-based; settings: 10 μM compound
T4 construct: expressed in transfected cells; host or cells: BHK-21 (ATCC CCL-10) with MRP1 in pcDNA3.1; HEK-293 transfected with ABCC1 in pcDNA3.1 is also described
T4 sequence (P33527 whole entry): as above
Source text: as §1, §2
The inhibitory effect of the compounds is quantified by measuring, by flow cytometry, the efflux of an anticancer drug transported by the pump under consideration, i.e. mitoxantrone for P-gp and BCRP and daunorubicin for MRP1. It is compared with that of the reference product, reversin 121. […]

[1] = phase III; cited from earlier work
[2] = system: NIH3T3 cells expressing or not expressing P-gp; experiment: Cytotoxicity test (MTT), cell survival after 72 h; format: cell-based
Experimental: The cells are seeded in a proportion of 10 000 per well in 96-well plates and incubated for 24 hours at 37° C. under 5% CO2. Varied concentrations of compounds Nos 2, 3, 4, 5 and 6, up to 20 times the IC50, are then added. The cytotoxicity is evaluated colorinnetrically with 3-(4,5-dimethylthiazol-2-yl)-2,5-diphenyltetrazolium bromide (MTT).
Increasing concentrations of compound No. 4 or No. 6 are applied to NIH3T3 cells expressing or not expressing P-gp. The cell survival is measured after 72 h and is expressed as a percentage. At 10 times the half-maximum-effect concentration, these two compounds are not toxic. Above this, the toxicity of compound No. 4 remains negligible, while that of compound No. 6 remains limited.

For `CC(C)(C)OC(=O)[C@H](CCCCNC(=O)OCc1ccccc1)NC(=O)[C@@H]1C[C@@H](OCC2CCCCC2)CN1C(=O)OC(C)(C)C` [No. 5, N^α-Boc-trans-L-4-Hyp(CH2cHex)-L-Lys(Z)-OtBu], which inhibition at 1 h, 10 µM (P-gp) is on record?
Its inhibition at 1 h, 10 µM is 82.2 ± 10.8%.

What about the IC50 (P-gp) of the same compound?
The IC50 was 1.13 ± 0.34 µM.

What about the “% pump inhibition at 10 μM of compound, BCRP” value (shortened to “% pump inhibition … BCRP”) (BCRP) of the same compound?
Its value is 18.8 ± 10.0%.

What does the source list for `CCOC/C=C/c1ccc(-c2nc(-c3ccc(NC(C)C)cc3)c(-c3ccc(NC(C)C)cc3)[nH]2)cc1` [ONT-093 (ontogeny)]?
activity of MDR inhibitor on ABCB1 (ABCB1): +; activity of MDR inhibitor on ABCC1 (ABCC1): −

Which results are given for `COc1cc2c(cc1OC)CN(CCc1ccc(NC(=O)c3cc(OC)c(OC)cc3NC(=O)c3cnc4ccccc4c3)cc1)CC2` [XR9576 (tariquidar)]?
activity of MDR inhibitor on ABCB1 (ABCB1): +; activity of MDR inhibitor on ABCG2 (ABCG2): +

Which results are given for `CC(C)(C)OC(=O)C(CCCCNC(=O)OCc1ccccc1)NC(=O)C1CC(OC(=O)C2CCCCC2)CN1C(=O)OC(C)(C)C` [No. 3, N^α-Boc-trans-L-4-Hyp(COcHex)-L-Lys(Z)-OtBu]?
IC50 for P-gp compared with that of reversin 121 (P-gp): better than that of reversin; inhibition at 1 h, 10 µM (P-gp): 106 ± 13.4%; IC50 (P-gp): 1.68 ± 0.28 µM; inhibition at 1 h, 10 µM (BCRP; human, HEK-293 cells transfected with BCRP, probe mitoxantrone, read-out: % pump inhibition at 10 μM of compound, BCRP): 11.2%; % pump inhibition at 10 μM of compound, MRP1 (MRP1; 10 µM): non measurable

With `CC(C)(C)OC(=O)[C@H](CCCCNC(=O)OCc1ccccc1)NC(=O)[C@@H]1C[C@@H](OC(=O)Cc2ccccc2)CN1C(=O)OC(C)(C)C` (relative stereo) [No. 2, N^α-Boc-trans-L-4-Hyp(COBn)-L-Lys(Z)-OtBu] as the compound, how does the “% pump inhibition at 10 μM of compound, P-gp” value (P-gp) read?
The value was 68.0 ± 10.0%.

What about the “% pump inhibition … BCRP” value (BCRP) of the same compound?
The value was 10.0 ± 7.5%.

Which “activity of MDR inhibitor on ABCB1” value (ABCB1) does the source give for `COC(=O)c1cnc2n1CCc1ccccc1C2=C1CCN(CCc2ccc(OCc3ccc4ccccc4n3)cc2)CC1` [R101933 (laniquidar)] here?
The value was “+”.

For `CC(C)(C)OC(=O)N[C@@H](CC(=O)OCc1ccccc1)C(=O)N[C@@H](CCCCNC(=O)OCc1ccccc1)C(=O)OC(C)(C)C` [Reversin 121, reference compound] (Boc-Asp(OBn)-Lys(Cbz)-OtBu), which “% pump inhibition at 10 μM of compound, P-gp” value (P-gp) is on record?
Its value is 75.8 ± 1.6%.

And the IC50 (P-gp)?
Its IC50 is 1.41 ± 0.34 µM.

What about the “% pump inhibition … BCRP” value (BCRP) of the same compound?
Its value is 37.2 ± 3.7%.

Which “activity of MDR inhibitor on ABCB1” value (ABCB1) does the source give for `COc1cc(C(=O)C(=O)N2CCCC[C@H]2C(=O)OC(CCCc2cccnc2)CCCc2cccnc2)cc(OC)c1OC` [VX-710 (biricodar)] here?
The value was “+”.

And the “activity of MDR inhibitor on ABCC1” value (ABCC1)?
Its value is “+”.

And the “activity of MDR inhibitor on ABCG2” value (ABCG2)?
Its value is “+”.

What does the source list for `O[C@@H](COc1cccc2ncccc12)CN1CCN([C@@H]2c3ccccc3[C@@H]3[C@H](c4ccccc42)C3(F)F)CC1` [Ly335979 (zosuquidar)]?
activity of MDR inhibitor on ABCC1 (ABCC1): −; activity of MDR inhibitor on ABCG2 (ABCG2): −; clinical outcome [1]: stopped in phase III because of their adverse effects

With `C/C=C/C[C@@H](C)C(=O)[C@H]1C(=O)N[C@@H](C(C)C)C(=O)N(C)CC(=O)N(C)[C@@H](CC(C)C)C(=O)N[C@@H](C(C)C)C(=O)N(C)[C@@H](CC(C)C)C(=O)N[C@@H](C)C(=O)N[C@H](C)C(=O)N(C)[C@@H](CC(C)C)C(=O)N(C)[C@@H](CC(C)C)C(=O)N(C)[C@@H](C(C)C)C(=O)N1C` [PSC833 (valspodar)] as the compound, how does the “activity of MDR inhibitor on ABCB1” value (ABCB1) read?
The value was “+”.

What about the “activity of MDR inhibitor on ABCG2” value (ABCG2) of the same compound?
The value was “−”.

Which results are given for `CC(C)(C)OC(=O)[C@H](CCCCNC(=O)OCc1ccccc1)NC(=O)[C@@H]1C[C@@H](OCc2ccccc2)CN1C(=O)OC(C)(C)C` [No. 4, N^α-Boc-trans-L-4-Hyp(Bn)-L-Lys(Z)-OtBu] (Boc-[Hyp](Bn)-Lys(Cbz)-OtBu)?
IC50 for P-gp compared with that of reversin 121 (P-gp): twice as good; % pump inhibition at 10 μM of compound, P-gp (P-gp): 99.7 ± 11.0%; IC50 (P-gp): 0.73 ± 0.2 µM; % pump inhibition at 10 μM of compound, BCRP (BCRP; 10 µM): 16.6 ± 3.4%; % pump inhibition at 10 μM of compound, MRP1 (MRP1): low or zero; inhibition at 1 h, 10 µM (MRP1; human, probe daunorubicin, read-out: % pump inhibition at 10 μM of compound, MRP1): < 10%; cytotoxicity ([2]; above 10 times the half-maximum-effect concentration): negligible; cytotoxicity ([2]; at 10 times the half-maximum-effect concentration): not toxic

Which results are given for `COc1cc2c(cc1OC)CN(CCc1ccc(NC(=O)c3cccc4c(=O)c5cccc(OC)c5[nH]c34)cc1)CC2` [GF120918 (elacridar)]?
activity of MDR inhibitor on ABCB1 (ABCB1): +; activity of MDR inhibitor on ABCC1 (ABCC1): −; activity of MDR inhibitor on ABCG2 (ABCG2): +
